US20100093661A1, “COMPOSITION COMPRISING CHITOSAN AND AN ACIDIC DRUG FOR ORAL CONTROLLED RELEASE” (The Jordanian Pharmaceutical Manufacturing Co., priority 2007, published 2010)

How the values were obtained:
[1] = single 200-mg oral dose, fasting subjects; cited from earlier work
Water solubility = type: physicochemical

SMILES	time of peak plasma levels after administration [1]	water solubility (Water solubility)
CC(C)Cc1ccc(C(C)C(=O)O)cc1 (centres unmarked) [Ibuprofen]	about 1 hr	
CC(=O)O.CC(C)Cc1ccc(C(C)C(=O)O)cc1 (centres unmarked) [Ibuprofen ethanoate]		water insoluble
